≈ marks a conversion by molar mass, not a printed value.
Columns and labels:
[1] = biological target: T1, Receptor-interacting serine/threonine-protein kinase 1 (Homo sapiens, UniProt Q13546); assay: Displacement of (14-(2-{[3-({2-{[4-(cyanomethyl)phenyl]amino}-6-[(5-cyclopropyl-1H-pyrazol-3-yl)amino]-4-pyrimidinyl}amino)propyl]amino}-2-oxoethyl)-16,16,18,18-tetramethyl-6,7,7a,8a,9,10,16,18-octahydrobenzo[2'',3'']indolizino[8'',7'':5',6']pyrano[3',2':3,4]pyrido[1,2-a]indol-5-ium-2-sulfonate from human N-terminal His-GST-TEV-fused RIP1 kinase domain (1 to 375) expressed in baculovirus infected insect Sf9 cells preincubated for 10 mins followed by fluorescent ligand addition measured after 15 mins by fluorescence polarization assay
T1 sequence (Q13546 whole entry): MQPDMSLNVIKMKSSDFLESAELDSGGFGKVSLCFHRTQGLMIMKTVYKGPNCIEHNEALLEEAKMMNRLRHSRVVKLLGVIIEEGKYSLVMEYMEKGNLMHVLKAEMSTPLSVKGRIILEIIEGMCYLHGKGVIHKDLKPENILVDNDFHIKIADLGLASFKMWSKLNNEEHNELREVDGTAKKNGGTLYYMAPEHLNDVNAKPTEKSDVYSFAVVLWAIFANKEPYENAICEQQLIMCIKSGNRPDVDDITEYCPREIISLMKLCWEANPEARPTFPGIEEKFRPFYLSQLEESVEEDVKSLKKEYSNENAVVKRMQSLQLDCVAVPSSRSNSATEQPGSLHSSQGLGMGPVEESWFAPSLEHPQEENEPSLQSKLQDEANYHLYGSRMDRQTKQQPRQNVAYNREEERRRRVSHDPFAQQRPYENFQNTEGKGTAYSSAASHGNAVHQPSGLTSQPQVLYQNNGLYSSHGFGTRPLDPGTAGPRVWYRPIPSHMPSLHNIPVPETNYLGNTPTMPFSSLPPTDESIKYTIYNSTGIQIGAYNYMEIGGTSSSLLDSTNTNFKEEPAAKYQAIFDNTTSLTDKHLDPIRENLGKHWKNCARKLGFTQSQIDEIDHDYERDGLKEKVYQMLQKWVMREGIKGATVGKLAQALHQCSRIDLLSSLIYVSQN

[2] = biological target: T1, Receptor-interacting serine/threonine-protein kinase 1; assay: Inhibition of human N-terminal His-GST-TEV-fused RIP1 kinase domain (1 to 375) autophosphorylation expressed in baculovirus infected insect Sf9 cells after 4 hrs by ADP-Glo luminescence assay
[3] = AUC in C57BL/6 mouse at 2 mg/kg, po measured at 4 hrs; type: ADME, organism-based; parameters: dose 2 mg/kg, route oral; settings: plasma
Mus musculus [4] = assay: Antiinflammatory activity in mouse TNFalpha-induced lethal shock model assessed as protection from body temperature loss at 0.2 mg/kg, po administered 15 mins prior to TNFalpha challenge measured over 7 hrs relative to TNFalpha-treated control; type: functional
[5] = Cmax in C57BL/6 mouse at 2 mg/kg, po measured at 4 hrs; type: ADME, organism-based; parameters: dose 2 mg/kg, route oral; settings: in vivo
Mus musculus [6] = assay: Antiinflammatory activity in mouse TNFalpha-induced lethal shock model assessed as protection from body temperature loss at 20 mg/kg, po administered 15 mins prior to TNFalpha challenge measured over 7 hrs relative to TNFalpha-treated control; type: functional
[7] = Fraction unbound in mouse; type: ADME, organism-based; settings: in vivo
Mus musculus [8] = assay: Antiinflammatory activity in mouse TNFalpha-induced lethal shock model assessed as protection from body temperature loss at 2 mg/kg, po administered 15 mins prior to TNFalpha challenge measured over 7 hrs relative to TNFalpha-treated control; type: functional
[9] = Solubility of the compound; type: physicochemical
[10] = Permeability of the compound; type: ADME; settings: not told; read-out: permeability
Mus musculus [11] = assay: Antiinflammatory activity in po dosed mouse TNFalpha-induced lethal shock model assessed as protection from body temperature loss administered 15 mins prior to TNFalpha challenge measured over 7 hrs; type: functional, organism-based

`CS(=O)(=O)c1cccc(-c2cnc3[nH]cc(-c4cccc(NC(=O)Nc5cc(C(F)(F)F)ccc5F)c4)c3c2)c1` gave an IC50 [1] of 63 nM and an IC50 [2] of 10 nM.

`CC(C)(C)c1cc(NC(=O)Nc2ccc(-c3coc4ncnc(N)c34)cc2)no1` showed an IC50 [1] of 32 nM and an IC50 [2] of 16 nM.

For `Nc1ncnc2occ(-c3ccc(NC(=O)Nc4cccc(C(F)(F)F)c4)cc3)c12` [GW795493X], the IC50 [1] was 20 nM and the IC50 [2] was 10 nM.

`Nc1nccc2c(-c3ccc(NC(=O)Nc4ccc(Cl)c(C(F)(F)F)c4)cc3)cccc12` gave an IC50 [1] of 40 nM and an IC50 [2] of 160 nM.

Work on `O=C(Nc1cccc(-c2c[nH]c3ncc(-c4ccccc4)cc23)c1)NC1CCCC1` yielded an IC50 [1] of 2000 nM and an IC50 [2] of 500 nM.

In the case of `Nc1ncnc2occ(-c3ccc(NC(=O)Nc4cc(C(F)(F)F)cc(C(F)(F)F)c4)cc3)c12` [GW795486X], the IC50 [1] is reported as 320 nM and the IC50 [2] is reported as 32 nM.

With `Nc1ncnc2occ(-c3ccc(NC(=O)Nc4cccc(Cl)c4)cc3)c12` the IC50 [1] was 160 nM and the IC50 [2] was 200 nM.

With `Nc1ncnc2occ(-c3ccc(NC(=O)Nc4cccc(C(F)(F)F)c4F)cc3)c12` the IC50 [1] was 250 nM and the IC50 [2] was 200 nM.

Work on `O=C(Nc1ccccc1)Nc1cccc(-c2c[nH]c3ncc(-c4ccccc4)cc23)c1` yielded an IC50 [1] of 1300 nM and an IC50 [2] of 400 nM.

Work on `O=C(Nc1cccc(-c2c[nH]c3ncc(-c4cccnc4)cc23)c1)Nc1cc(C(F)(F)F)ccc1F` yielded an IC50 [1] of 7.9 nM and an IC50 [2] of 4 nM.

`Nc1ccc(-c2cnc3[nH]cc(-c4cccc(NC(=O)Nc5cc(C(F)(F)F)ccc5F)c4)c3c2)cc1` gave an IC50 [1] of 32 nM and an IC50 [2] of 50 nM.

Work on `Nc1ncnc2occ(-c3ccc(NC(=O)Nc4ccc(F)c(C(F)(F)F)c4)cc3)c12` yielded an IC50 [1] of 160 nM and an IC50 [2] of 500 nM.

For `Nc1ncnc2occ(-c3ccc(NC(=O)Nc4cc(C(F)(F)F)ccc4F)cc3)c12` [GW770249X], the AUC at 4 h [3] was 14000 ng·h/mL, the Activity (Mus musculus [4]) was 15% and the Cmax [5] was 1100 ng/mL. The Activity (Mus musculus [6]) was 77%, the Fu [7] was 0.04% and the Activity (Mus musculus [8]) was 22%. For the same molecule, the solubility [9] was 13 µM (≈ 5.61 µg/mL), the Papp [10] was 21 ×10⁻⁶ cm/s and the Activity (Mus musculus [11]) was “Dose-dependent effect”.

For `Nc1nccc2c(-c3ccc(NC(=O)Nc4cccc(C(F)(F)F)c4F)cc3)cccc12`, the IC50 [1] was > 10000 nM and the IC50 [2] was 4000 nM.

Molecule `Nc1nccc2c(-c3ccc(NC(=O)Nc4cccc(C(F)(F)F)c4)cc3)cccc12` has an IC50 [1] of 20 nM and an IC50 [2] of 25 nM.

`NC(=O)c1cccc(-c2cnc3[nH]cc(-c4cccc(NC(=O)Nc5cc(C(F)(F)F)ccc5F)c4)c3c2)c1` gave an IC50 [1] of 16 nM and an IC50 [2] of 10 nM.

`Nc1nccc2c(-c3ccc(NC(=O)Nc4cc(F)cc(C(F)(F)F)c4)cc3)cccc12` gave an IC50 [1] of 160 nM and an IC50 [2] of 25 nM.

With `O=C(Nc1cccc(-c2c[nH]c3ncc(-c4ccccc4)cc23)c1)Nc1cccc([N+](=O)[O-])c1` the IC50 [1] was 16 nM and the IC50 [2] was 16 nM.

`Nc1nccc2c(-c3ccc(NC(=O)Nc4cc(C(F)(F)F)ccc4Cl)cc3)cccc12` showed an IC50 [1] of 3200 nM and an IC50 [2] of 630 nM.

For `Nc1ncnc2occ(-c3ccc(NC(=O)Nc4ccc5ccccc5c4)cc3)c12`, the IC50 [1] was 100 nM.

`Nc1ncnc2occ(-c3ccc(NC(=O)Nc4cc(F)cc(C(F)(F)F)c4)cc3)c12` gave an IC50 [1] of 130 nM and an IC50 [2] of 63 nM.

For `Nc1ncnc2occ(-c3ccc(NC(=O)Nc4cc(C(F)(F)F)ccc4Cl)cc3)c12`, the IC50 [1] was > 10000 nM and the IC50 [2] was 2500 nM.

`Nc1nccc2c(-c3ccc(NC(=O)Nc4cc(C(F)(F)F)ccc4F)cc3)cccc12` gave an IC50 [1] of 13 nM and an IC50 [2] of 130 nM.

For `COc1cccc(NC(=O)Nc2cccc(-c3c[nH]c4ncc(-c5ccccc5)cc34)c2)c1`, the IC50 [1] was 32 nM and the IC50 [2] was 6.3 nM.

Work on `CCS(=O)(=O)c1ccc(-c2cnc3[nH]cc(-c4cccc(NC(=O)Nc5cc(C(F)(F)F)ccc5F)c4)c3c2)cc1` yielded an IC50 [1] of 3.2 nM and an IC50 [2] of 10 nM.

In the case of `Nc1nccc2c(-c3ccc(NC(=O)Nc4ccc(F)c(C(F)(F)F)c4)cc3)cccc12`, the IC50 [1] is reported as 320 nM and the IC50 [2] is reported as 10 nM.

`O=C(Nc1cccc(-c2c[nH]c3ncc(-c4cn[nH]c4)cc23)c1)Nc1cc(C(F)(F)F)ccc1F` showed an IC50 [1] of 16 nM and an IC50 [2] of 6 nM.

`CCc1cccc(NC(=O)Nc2ccc(-c3coc4ncnc(N)c34)cc2)c1` showed an IC50 [1] of 25 nM and an IC50 [2] of 10 nM.

In the case of `O=C(Nc1cccc(-c2c[nH]c3ncc(-c4ccccc4)cc23)c1)Nc1cccc(C(F)(F)F)c1`, the IC50 [1] is reported as 32 nM and the IC50 [2] is reported as 32 nM.

With `CC(=O)c1cccc(NC(=O)Nc2cccc(-c3c[nH]c4ncc(-c5ccccc5)cc34)c2)c1` the IC50 [1] was 13 nM and the IC50 [2] was 10 nM.

`Nc1ncnc2occ(-c3ccc(NC(=O)Nc4ccc(Cl)c(C(F)(F)F)c4)cc3)c12` showed an IC50 [1] of 160 nM and an IC50 [2] of 32 nM.

`O=C(Nc1cccc(-c2c[nH]c3ncc(-c4ccccc4)cc23)c1)Nc1cc(C(F)(F)F)ccc1F` gave an IC50 [1] of 200 nM and an IC50 [2] of 80 nM.
